Measurements: PubChem BioAssay (NCI)
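Following 48 hours of exposure in 96-well plates, responses at five concentrations were used to interpolate endpoints linearly. The concentration for 50% growth inhibition is given as GI50. TGI: total growth inhibition.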

Experiments:
Assay in all cases: NCI-60 cell line screen, 48 h
SF-268 CNS = tested on: SF-268 CNS
KM12 colon = tested on: KM12 colon
HT29 colon = tested on: HT29 colon
MDA-MB-231 breast = tested on: MDA-MB-231 breast
OVCAR-4 ovarian = tested on: OVCAR-4 ovarian
LOX IMVI melanoma = tested on: LOX IMVI melanoma
CAKI-1 renal = tested on: CAKI-1 renal
SF-539 CNS = tested on: SF-539 CNS
SR leukemia = tested on: SR leukemia
SNB-19 CNS = tested on: SNB-19 CNS
SK-OV-3 ovarian = tested on: SK-OV-3 ovarian
OVCAR-8 ovarian = tested on: OVCAR-8 ovarian
OVCAR-3 ovarian = tested on: OVCAR-3 ovarian
SF-295 CNS = tested on: SF-295 CNS
HCT-116 colon = tested on: HCT-116 colon
NCI-H460 lung = tested on: NCI-H460 lung
HCT-15 colon = tested on: HCT-15 colon
COLO 205 colon = tested on: COLO 205 colon
SN12C renal = tested on: SN12C renal
IGROV1 ovarian = tested on: IGROV1 ovarian
U251 CNS = tested on: U251 CNS
BT-549 breast = tested on: BT-549 breast
T-47D breast = tested on: T-47D breast
K-562 leukemia = tested on: K-562 leukemia
HCC-2998 colon = tested on: HCC-2998 colon
NCI-H23 lung = tested on: NCI-H23 lung
EKVX NSCLC = tested on: EKVX NSCLC
HOP-62 NSCLC = tested on: HOP-62 NSCLC
MDA-MB-435 = tested on: MDA-MB-435
OVCAR-5 ovarian = tested on: OVCAR-5 ovarian
NCI-H522 lung = tested on: NCI-H522 lung
RXF 393 renal = tested on: RXF 393 renal
NCI/ADR-RES ovarian = tested on: NCI/ADR-RES ovarian
TK-10 renal = tested on: TK-10 renal
SK-MEL-5 melanoma = tested on: SK-MEL-5 melanoma
RPMI-8226 leukemia = tested on: RPMI-8226 leukemia
MCF7 breast = tested on: MCF7 breast
A498 renal = tested on: A498 renal
SW-620 colon = tested on: SW-620 colon
MOLT-4 leukemia = tested on: MOLT-4 leukemia
MALME-3M melanoma = tested on: MALME-3M melanoma
UACC-62 melanoma = tested on: UACC-62 melanoma
CCRF-CEM leukemia = tested on: CCRF-CEM leukemia
786-0 renal = tested on: 786-0 renal
HS 578T breast = tested on: HS 578T breast
HOP-92 NSCLC = tested on: HOP-92 NSCLC
DU-145 prostate = tested on: DU-145 prostate
ACHN renal = tested on: ACHN renal
A549 NSCLC = tested on: A549 NSCLC
UO-31 renal = tested on: UO-31 renal
SNB-75 CNS = tested on: SNB-75 CNS
NCI-H226 lung = tested on: NCI-H226 lung
SK-MEL-2 melanoma = tested on: SK-MEL-2 melanoma
SK-MEL-28 melanoma = tested on: SK-MEL-28 melanoma
PC-3 prostate = tested on: PC-3 prostate
M14 melanoma = tested on: M14 melanoma

## Nc1c(C(=O)c2ccccc2)sc2nc(-c3cccs3)ccc12
SF-268 CNS
  GI50: 664 nM
  TGI: 15.5 µM
KM12 colon
  GI50: 103 nM
  TGI: 5.6 µM
HT29 colon
  GI50: 365 nM
  TGI: 3.3 µM
MDA-MB-231 breast
  GI50: 1230 nM
  TGI: 5.7 µM
OVCAR-4 ovarian
  GI50: 902 nM
  TGI: 6.72 µM
LOX IMVI melanoma
  GI50: 378 nM
  TGI: 15.3 µM
CAKI-1 renal
  GI50: 564 nM
  TGI: 20.1 µM
SF-539 CNS
  GI50: 250 nM
  TGI: 1240 nM
SR leukemia
  GI50: 66.8 nM
  TGI: 4.16 µM
SNB-19 CNS
  GI50: 432 nM
  TGI: 10.3 µM
SK-OV-3 ovarian
  GI50: 389 nM
  TGI: 18.4 µM
OVCAR-8 ovarian
  GI50: 453 nM
  TGI: > 100 µM
OVCAR-3 ovarian
  GI50: 46.8 nM
  TGI: 1050 nM
SF-295 CNS
  GI50: 171 nM
  TGI: 1710 nM
HCT-116 colon
  GI50: 53.3 nM
  TGI: 1960 nM
NCI-H460 lung
  GI50: 283 nM
  TGI: 2560 nM
HCT-15 colon
  GI50: 55.2 nM
  TGI: 10.4 µM
COLO 205 colon
  GI50: 426 nM
  TGI: 4.65 µM
SN12C renal
  GI50: 692 nM
  TGI: 27.4 µM
IGROV1 ovarian
  GI50: 1210 nM
  TGI: 18.8 µM
U251 CNS
  GI50: 281 nM
  TGI: 14.1 µM
BT-549 breast
  GI50: 332 nM
  TGI: 11.6 µM
T-47D breast
  GI50: 335 nM
  TGI: 12.2 µM
K-562 leukemia
  GI50: 46.7 nM
  TGI: 20.5 µM
HCC-2998 colon
  GI50: 468 nM
  TGI: 4.25 µM
NCI-H23 lung
  GI50: 331 nM
  TGI: 10.1 µM
EKVX NSCLC
  GI50: 285 nM
  TGI: 17.5 µM
HOP-62 NSCLC
  GI50: 276 nM
  TGI: 17.8 µM
MDA-MB-435
  GI50: 27 nM
  TGI: 1030 nM
OVCAR-5 ovarian
  GI50: 1800 nM
  TGI: 14.5 µM
NCI-H522 lung
  GI50: 17.8 nM
  TGI: 56.7 nM
RXF 393 renal
  GI50: 317 nM
  TGI: 1630 nM
NCI/ADR-RES ovarian
  GI50: 53.7 nM
  TGI: 1810 nM
TK-10 renal
  GI50: 414 nM
  TGI: 5.79 µM
SK-MEL-5 melanoma
  GI50: 292 nM
  TGI: 3.13 µM
RPMI-8226 leukemia
  GI50: 513 nM
  TGI: 17.6 µM
MCF7 breast
  GI50: 87.8 nM
  TGI: 4.6 µM
A498 renal
  GI50: 185 nM
  TGI: 3.91 µM
SW-620 colon
  GI50: 73.4 nM
  TGI: 11.1 µM
MOLT-4 leukemia
  GI50: 50.4 nM
  TGI: 1120 nM
MALME-3M melanoma
  GI50: 1190 nM
  TGI: 12.6 µM
UACC-62 melanoma
  GI50: 78.8 nM
  TGI: 10.4 µM
CCRF-CEM leukemia
  GI50: 524 nM
  TGI: > 100 µM
786-0 renal
  GI50: 725 nM
  TGI: 7.67 µM
HS 578T breast
  GI50: 474 nM
  TGI: 12.7 µM
HOP-92 NSCLC
  GI50: 486 nM
  TGI: 7.31 µM
DU-145 prostate
  GI50: 299 nM
  TGI: 10 µM
ACHN renal
  GI50: 863 nM
  TGI: 13.3 µM
A549 NSCLC
  GI50: 492 nM
  TGI: 4.8 µM
UO-31 renal
  GI50: 1130 nM
  TGI: 15.2 µM
SNB-75 CNS
  GI50: 187 nM
  TGI: 1420 nM
NCI-H226 lung
  GI50: 2110 nM
  TGI: 12.5 µM
SK-MEL-2 melanoma
  GI50: 252 nM
  TGI: 17.8 µM
SK-MEL-28 melanoma
  GI50: 1490 nM
  TGI: > 100 µM
PC-3 prostate
  GI50: 176 nM
  TGI: 10.1 µM
M14 melanoma
  GI50: 92.4 nM
  TGI: 13.3 µM
